Data taken from ChEMBL document CHEMBL1137945, “Design, synthesis, and activity of HDAC inhibitors with a N-formyl hydroxylamine head group” (Bioorg Med Chem Lett, 2004).
pEC50, pIC50: −log10 of the molar value.

Experiments:
Histone deacetylase = experiment: Inhibition of Histone deacetylase (HDAC)of HeLa nuclear extracts; format: protein assay, Homo sapiens
Histone deacetylase 2 = Histone deacetylase 2 (Homo sapiens, UniProt Q92769); experiment: Inhibition of Histone deacetylase 2 (HDAC2) activity of HeLa nuclear extracts
Sequence of Histone deacetylase 2 (Q92769 whole entry): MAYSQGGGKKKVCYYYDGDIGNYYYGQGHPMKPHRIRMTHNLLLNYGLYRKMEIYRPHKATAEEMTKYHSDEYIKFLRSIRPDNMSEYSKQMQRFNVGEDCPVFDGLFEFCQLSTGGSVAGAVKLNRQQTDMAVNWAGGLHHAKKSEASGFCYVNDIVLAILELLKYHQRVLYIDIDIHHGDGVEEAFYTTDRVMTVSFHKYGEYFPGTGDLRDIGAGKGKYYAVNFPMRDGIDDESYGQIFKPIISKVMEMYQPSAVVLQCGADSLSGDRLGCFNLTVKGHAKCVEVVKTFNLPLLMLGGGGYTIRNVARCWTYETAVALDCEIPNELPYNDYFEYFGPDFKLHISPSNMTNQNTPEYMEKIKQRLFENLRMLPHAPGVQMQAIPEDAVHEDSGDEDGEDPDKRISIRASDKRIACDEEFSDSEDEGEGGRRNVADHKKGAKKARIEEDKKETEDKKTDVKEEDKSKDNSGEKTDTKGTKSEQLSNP

Histone deacetylase 8 = target: T1, Histone deacetylase 8 (Homo sapiens, UniProt Q9BY41)
T1 sequence (Q9BY41 whole entry): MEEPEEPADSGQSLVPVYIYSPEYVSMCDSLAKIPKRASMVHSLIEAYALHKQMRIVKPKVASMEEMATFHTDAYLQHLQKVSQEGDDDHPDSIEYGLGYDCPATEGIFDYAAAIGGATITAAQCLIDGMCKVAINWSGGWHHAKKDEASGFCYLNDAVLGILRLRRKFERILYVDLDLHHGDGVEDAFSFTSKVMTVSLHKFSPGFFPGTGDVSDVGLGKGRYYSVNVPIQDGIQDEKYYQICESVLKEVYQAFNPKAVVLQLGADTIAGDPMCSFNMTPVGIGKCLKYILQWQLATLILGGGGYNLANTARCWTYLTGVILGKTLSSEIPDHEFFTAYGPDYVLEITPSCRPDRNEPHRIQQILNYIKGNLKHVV
Description: Inhibition of Histone deacetylase 8 (HDAC8) of HeLa nuclear extracts

[1] = target: T2, Protein deacetylase HDAC6 (Homo sapiens, UniProt Q9UBN7)
T2 sequence (Q9UBN7 whole entry): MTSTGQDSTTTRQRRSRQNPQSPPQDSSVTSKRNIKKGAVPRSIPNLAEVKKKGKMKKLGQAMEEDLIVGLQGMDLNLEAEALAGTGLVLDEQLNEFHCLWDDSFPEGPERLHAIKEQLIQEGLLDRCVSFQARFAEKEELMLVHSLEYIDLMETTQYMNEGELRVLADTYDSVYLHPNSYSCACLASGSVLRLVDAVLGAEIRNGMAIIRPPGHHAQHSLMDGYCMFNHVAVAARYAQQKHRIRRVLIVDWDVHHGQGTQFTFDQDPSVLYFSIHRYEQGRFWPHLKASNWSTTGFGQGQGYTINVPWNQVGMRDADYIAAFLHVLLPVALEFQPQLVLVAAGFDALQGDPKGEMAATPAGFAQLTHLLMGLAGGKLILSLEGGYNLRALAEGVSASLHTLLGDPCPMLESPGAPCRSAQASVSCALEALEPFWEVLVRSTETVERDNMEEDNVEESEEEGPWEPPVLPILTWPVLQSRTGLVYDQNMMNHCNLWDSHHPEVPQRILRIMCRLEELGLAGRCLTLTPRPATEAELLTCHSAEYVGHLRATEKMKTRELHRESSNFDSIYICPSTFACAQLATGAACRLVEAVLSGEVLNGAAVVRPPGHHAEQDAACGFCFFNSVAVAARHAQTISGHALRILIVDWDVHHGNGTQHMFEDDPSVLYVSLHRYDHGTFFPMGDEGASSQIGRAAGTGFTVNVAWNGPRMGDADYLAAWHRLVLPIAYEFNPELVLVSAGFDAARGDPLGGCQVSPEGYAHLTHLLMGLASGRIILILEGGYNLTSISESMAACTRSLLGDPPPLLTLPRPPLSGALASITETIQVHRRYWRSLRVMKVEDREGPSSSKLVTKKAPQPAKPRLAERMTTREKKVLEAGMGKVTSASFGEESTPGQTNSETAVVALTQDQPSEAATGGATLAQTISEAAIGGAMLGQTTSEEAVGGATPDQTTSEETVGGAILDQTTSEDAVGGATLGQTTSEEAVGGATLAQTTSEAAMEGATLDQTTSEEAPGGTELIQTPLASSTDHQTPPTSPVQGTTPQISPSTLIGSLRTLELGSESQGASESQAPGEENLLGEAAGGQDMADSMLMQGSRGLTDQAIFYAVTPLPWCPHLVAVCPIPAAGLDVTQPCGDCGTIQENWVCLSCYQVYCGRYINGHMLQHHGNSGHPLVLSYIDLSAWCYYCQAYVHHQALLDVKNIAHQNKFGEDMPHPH
Description: Inhibition of Histone deacetylase 6 (HDAC6) of HeLa nuclear extracts

Histone deacetylase 1 = Histone deacetylase 1 (Homo sapiens, UniProt Q13547)
Sequence of Histone deacetylase 1 (Q13547 whole entry): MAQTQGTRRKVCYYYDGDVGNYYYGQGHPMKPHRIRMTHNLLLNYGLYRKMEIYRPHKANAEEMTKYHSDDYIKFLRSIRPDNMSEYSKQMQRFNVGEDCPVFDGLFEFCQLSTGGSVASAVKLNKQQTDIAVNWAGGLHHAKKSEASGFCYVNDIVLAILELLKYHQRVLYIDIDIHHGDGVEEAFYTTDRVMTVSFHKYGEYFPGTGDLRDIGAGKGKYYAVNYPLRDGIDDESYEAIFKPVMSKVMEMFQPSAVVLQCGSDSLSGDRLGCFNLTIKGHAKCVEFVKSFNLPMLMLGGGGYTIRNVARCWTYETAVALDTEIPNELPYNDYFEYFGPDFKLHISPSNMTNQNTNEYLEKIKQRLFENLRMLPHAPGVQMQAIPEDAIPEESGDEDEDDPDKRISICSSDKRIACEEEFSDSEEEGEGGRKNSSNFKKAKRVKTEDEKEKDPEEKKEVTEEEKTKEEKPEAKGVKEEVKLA
Description: Inhibition of Histone deacetylase 1 (HDAC1) of HeLa nuclear extracts

Jurkat = experiment: Compound was tested for anti-proliferative activity in Jurkat human leukemia cell line; format: functional, cell-based
U-937 = experiment: Compound was tested for anti-proliferative activity in U-937 human leukemia cell line; format: functional, cell-based
Homo sapiens = species: Homo sapiens; experiment: Compound was tested for anti-proliferative activity in human hepatocytes; format: functional, organism-based; details: Hepatocyte
[2] = Activity in histone hyperacetylation assay in cells; format: functional
[3] = system: bone marrow cells (Homo sapiens); experiment: cells

Row | Compound | IC50 (Histone deacetylase) | pIC50 (Histone deacetylase 2) | pIC50 (Histone deacetylase 8) | pIC50 [1] | pIC50 (Histone deacetylase 1) | pEC50 (Jurkat) | pEC50 (U-937) | pEC50 (Homo sapiens) | pEC50 [2] | pEC50 [3]
1 | O=CN(O)CCCCCCCC(=O)Nc1cccc2ccccc12 | 50 µM | 5.23 | 6.19 | 5.51 | 5.24 | – | – | – | – | –
2 | COC(=O)N(O)CCCCCCC(=O)Nc1ccccc1 | – | < 4.00 | < 4.00 | < 4.00 | – | – | – | – | – | –
3 | CC(=O)N(O)CCCCCC(=O)Nc1ccccc1 | > 100 µM | < 4.00 | < 4.00 | < 4.00 | – | – | – | – | – | –
4 | CC(=O)N(O)CCCCCCCC(=O)Nc1ccccc1 | – | < 4.00 | < 4.00 | < 4.00 | – | – | – | – | – | –
5 | O=CN(O)CCCCCCCC(=O)Nc1ccccc1 | – | 5.11 | 5.55 | 5.26 | – | – | – | – | – | –
6 | O=CN(O)CCCCCCC(=O)Nc1ccccc1 | – | 4.96 | 5.40 | – | – | – | – | – | – | –
7 | O=CN(O)CCCCCC(C(=O)Nc1cnc2ccccc2c1)C(=O)Nc1cnc2ccccc2c1 | 0.97 µM | 6.70 | 6.16 | 6.11 | 6.80 | 4.96 | 4.40 | 4.39 | 5.29 | 4.11
8 | O=CN(O)CCCCCC(=O)Nc1ccccc1 | – | 4.72 | 5.17 | 5.55 | – | – | – | – | – | –
9 | O=CN(O)CCCCCNC(=O)CCc1ccccc1 | > 100 µM | 4.39 | 5.01 | 4.52 | 4.31 | – | – | – | – | –
10 | O=CN(O)CCCCCCCC(=O)Nc1ccc2ccccc2c1 | 4 µM | 6.05 | 6.11 | 6.04 | 6.09 | – | – | – | – | –
11 | O=CN(O)CCCCCC(C(=O)Nc1ccc2ncccc2c1)C(=O)Nc1ccc2ncccc2c1 | 0.75 µM | 6.57 | 6.10 | 6.21 | 6.74 | 4.51 | 4.00 | < 3.30 | 5.00 | 3.89
12 | O=CN(O)CCCCCNC(=O)c1ccccc1 | > 100 µM | 4.59 | 4.66 | 5.37 | 4.52 | – | – | – | – | –
13 | O=CN(O)CCCCCNC(=O)c1ccc2ccccc2c1 | 4.4 µM | 5.85 | 5.15 | 6.22 | 5.89 | – | – | – | – | –
14 | O=C(CCCCCCC(=O)Nc1ccccc1)NO [VORINOSTAT] | – | – | – | – | – | 5.64 | 4.48 | – | – | –
